In patent US9029410B2, “Pharmaceutical compositions for the treatment of movement disorders” (Sarah Herzog Memorial Hospital Ezrath Nashim Association, priority 2003, dated 2015):
Like-named read-outs stand apart in the source and are kept apart here.

What was measured:
patients [1] = conditions: Tsai and Coyle '875; low baseline levels; cited from earlier work
schizophrenia patients [2] = test: PANSS, crossover trials of D-cycloserine (pooled); assay type: in vivo, human; conditions: mean ± sd
Protocol: (§1) Patients fulfilled criteria for treatment resistance used in previous trials of glycine and had been receiving stable doses of olanzapine or risperidone for at least 3 months before study entry. Medication doses remained fixed throughout the study.
(§2) Methods for this study are the same as in example 1, except that D-cycloserine (50 mg/d) was used for treatment. As previously, outcome was assessed using the PANSS, SAS and AIMS. In addition, the Schedule for Assessment of Negative Symptoms (SANS) was used to provide further assessment of negative symptoms. Data are pooled from two previously published studies (Heresco-Levy et al., 1998, 2002). Because analyses were confirmatory, one-tailed statistics were used throughout.

schizophrenia patients [3] = test: AIMS, crossover trials of D-cycloserine (pooled); assay type: in vivo, human
Protocol: as §1, §2

MPTP-treated monkeys [4] = conditions: cited from earlier work
schizophrenia patients [5] = test: SAS, crossover trials of D-cycloserine (pooled); assay type: in vivo, human
Protocol: as §1, §2

MPTP-treated monkeys [6] = conditions: low dose (320 or 1000 mg/kg as printed); cited from earlier work
schizophrenia patients [7] = test: AIMS, crossover trial of D-serine; assay type: in vivo, human
Text: (§3) The study was approved by the appropriate institutional review boards. Seventeen stable inpatients meeting DSM-IV criteria for schizophrenia and free of other axis I diagnoses or significant medical illness were enrolled in the study. Diagnosis was established on the basis of semistructured psychiatric interviews, review of all available medical records, and confirmation by two board-certified psychiatrists. […] Medication doses remained fixed throughout the study.
(§4) After complete description of the study, written informed consent was obtained from all participating patients. The double-blind, placebo-controlled, crossover study consisted of two random-order 6-week treatment arms (glycine 0.8 g/kg/day, or placebo), separated by a 2-week adjuvant treatment washout. Patients were assessed biweekly with the Positive and Negative Syndrome Scale (PANSS), Brief Psychiatric Rating Scale (BPRS), Simpson-Angus Rating Scale (SAS), and Abnormal Involuntary Movement Scale (AIMS) performed by one trained research psychiatrist, as previously described (3). CBC and SMA-20 measures were assessed biweekly throughout the study. Trough glycine and serine serum levels were assessed at baseline and at the end of the two treatment phases. Data were analyzed by repeated measures ANOVA with within group factor of study phase (glycine/placebo) and time within study phase (pre/post), and between group factor of treatment order.
(§5) Methods: Methods for this study are the same as in example 1, except that D-serine ([…]=approx. 2.1 g/day) was used for treatment. As previously, outcome was assessed using the PANSS, SAS and AIMS. In addition, the Schedule for Assessment of Negative Symptoms (SANS) was used to provide further assessment of negative symptoms. This represents an interim analysis of an ongoing study. Data were analyzed by between-treatment t-test of change scores during D-serine or placebo treatment. Data are analyzed only from subjects (n=23) who completed both study phases.

schizophrenia patients [8] = test: SANS, crossover trial of D-serine; assay type: in vivo, human
Text: as §3
as §4, with “The double-blind, placebo-controlled, crossover study consisted of two random-order 6-week treatment arms (glycine 0.8 g/kg/day, or placebo), separated by a 2-week adjuvant treatment washout.” left out, “order. […]” for “order.”

patients [9] = conditions: D-serine combined with clozapine; Tsai et al., 1999; cited from earlier work
schizophrenia patients [10] = test: SAS, crossover trial of D-serine; assay type: in vivo, human
Text: as §3, §4, §5

schizophrenia patients [11] = test: PANSS, crossover trial of D-serine; assay type: in vivo, human; parameters: PANSS Positive Symptoms, treatment week 6: dose or concentration left out as unconfirmed; conditions: mean ± sd
Text: as §3, §4, §5

schizophrenia patients [12] = conditions: prior study, Heresco-Levy et al., 1999, Table 3, cited from earlier work
[13] = tested on: haloperidol-treated Sprague-Dewley rats
Protocol: In this model, animals are treated chronically with antipsychotics and their vacuous chewing motions are assessed by observation.
Sprague-Dewley rats (Harlan Laboratories, Jerusalem, Israel) weighing 150 to 170 g. were used. The rats were housed in polycarbonate cages (4 in each cage), maintained under a 12 hour-12 hour dark-light (04.00-16.00 hours) cycle, and were allowed water ad libitum. In order to limit neuroleptic-induced weight gain, the food was restricted to 15 g. pellets per animal per day, as used by Andreassen et al (1996). Rats were weighed biweekly throughout the study. Room temperature was maintained at 22±2° C. All procedures were conducted in accordance with local and international laws for the care and use of laboratory animals.
For two weeks prior to the first drug injection, animals were handled daily and habituated to the animal colony and the procedures related to drug administration and video recording situation. Subsequently (week 0), rats underwent a behavior video recording session following which they were randomized to a haloperidol treatment and a control group. The rats in the treatment group received an intramuscular injection in the thigh muscles with haloperidol decanoate (Pericate, Unipharm Ltd., Tel Aviv, Israel), 100 mg/ml in sesame oil, at a dose of 0.35 mg/kg. The control rats were similarly injected with an equal volume of phosphate buffered saline (PBS). Twenty-three G hypodermic needles were used for all injections. […]
Rats underwent a video recorded behavior assessment session 30-150 minutes following the injection. Two weeks after the test day (i.e., post-test day), the video recorded behavior assessment session was repeated in order to investigate longer-term effects of the experimental treatments. […]
A trained observer, unaware of the treatment received by the rats, scored the behavior while watching the videotapes. […] The statistical significance of interaction of the between group factor and the repeated measures factor is determined in the [sequence] software package using the Rao R statistic and the F distribution. […]

[14] = tested on: inpatients with treatment-resistant schizophrenia
Text: as §3, §4

schizophrenia patients [15] = conditions: prior study, Heresco-Levy et al., 1999, Table 3, cited from earlier work; remark: listed apart in the source
[16] = tested on: inpatients with treatment-resistant schizophrenia; conditions: glycine 0.8 g/kg/day; 2 patients; ceased following discontinuation
Text: Three of the 14 patients who completed the study were women and 11 were men. Their mean age was 46.5 years (SD=9.6), the mean duration of their illness was 25.8 years (SD=11.0) and the mean duration of their current hospitalization was 3.0 years (SD=3.7).

[17] = D-cycloserine 50 mg/d, week 6, n=26
[18] = D-cycloserine 50 mg/d, week 6 minus week 0
[19] = D-cycloserine phase, week 0, n=26
[20] = D-cycloserine 50 mg/d, week 6, mean ± sd, n=26
[21] = D-cycloserine 50 mg/d, week 6 minus week 0, mean ± sd
[22] = D-cycloserine phase, week 0, mean ± sd, n=26
[23] = D-serine phase, week 0, mean ± sd, n=23
[24] = D-serine, week 6, mean ± sd, n=23
[25] = D-serine, week 6 minus week 0, mean ± sd
[26] = during D-serine treatment, 6 weeks
[27] = glycine 0.8 g/kg/day vs placebo, 6 weeks
[28] = glycine 0.8 g/kg/day, week 6, mean, n=14
[29] = glycine phase, baseline, mean, n=14
[30] = mean (sd), reduction over 6 weeks of glycine 0.8 g/kg/day
[31] = mean (sd), reduction over 6 weeks of glycine 0.8 g/kg/day, listed as glycine

C[C@@H](N)C(=O)O [D-alanine]
Changes in SAS or AIMS scores (patients [1]): no significant changes

N[C@@H]1CONC1=O [D-cycloserine]
PANSS General Psychopathaology, week 6 within treatment phase (schizophrenia patients [2]; [17]): 53.8 ± 8.2 | PANSS Negative symptoms, week 6 within treatment phase (schizophrenia patients [2]; [17]): 31.4 ± 6.5 | PANSS Positive symptoms, week 6 within treatment phase (schizophrenia patients [2]; [17]): 24.6 ± 4.1 | PANSS Total Symptoms, week 6 within treatment phase (schizophrenia patients [2]; [17]): 109.7 ± 15.8 | PANSS General Psychopathaology, Ä symptoms (schizophrenia patients [2]; [18]): −4.9 ± 6.2 | PANSS Negative symptoms, Ä symptoms (schizophrenia patients [2]; [18]): −3.2 ± 2.5 | PANSS Positive symptoms, Ä symptoms (schizophrenia patients [2]; [18]): −2.1 ± 2.6 | PANSS Total Symptoms, Ä symptoms (schizophrenia patients [2]; [18]): −10.2 ± 8.9 | PANSS General Psychopathaology, week 0 within treatment phase (schizophrenia patients [2]; [19]): 58.7 ± 8.4 | PANSS Negative symptoms, week 0 within treatment phase (schizophrenia patients [2]; [19]): 34.6 ± 6.2 | PANSS Positive symptoms, week 0 within treatment phase (schizophrenia patients [2]; [19]): 26.7 ± 4.5 | PANSS Total Symptoms, week 0 within treatment phase (schizophrenia patients [2]; [19]): 120 ± 16.7 | Effect on dyskinetic symptoms (AIMS) (schizophrenia patients [3]; D-cycloserine 50 mg/d vs placebo, t=2.21, p<0.025, one tailed): significant reduction | AIMS, week 6 within treatment phase (schizophrenia patients [3]; [20]): 3.9 ± 3 | AIMS, Ä symptoms (schizophrenia patients [3]; [21]): −0.8 ± 1.3 | AIMS, week 0 within treatment phase (schizophrenia patients [3]; [22]): 4.7 ± 3.1 | Bradykinesia, tremor or other core Parkinsonian symptoms (MPTP-treated monkeys [4]): did not show improvement | Effect on Parkinsonian symptoms (SAS) (schizophrenia patients [5]; D-cycloserine 50 mg/d vs placebo, t=1.77, one tailed): nearly significant improvement | SAS, week 6 within treatment phase (schizophrenia patients [5]; [20]): 3.6 ± 2.1 | SAS, Ä symptoms (schizophrenia patients [5]; [21]): −0.7 ± 1.7 | SAS, week 0 within treatment phase (schizophrenia patients [5]; [22]): 4.3 ± 2.4 | Variable delayed-response task (VDR) performance (MPTP-treated monkeys [6]): significantly improved

N[C@H](CO)C(=O)O [D-serine]
AIMS, treatment week 0 (schizophrenia patients [7]; [23]): 3.0 ± 0.8 | AIMS, treatment week 6 (schizophrenia patients [7]; [24]): 1.6 ± 1.2 | AIMS, Δ symptoms (schizophrenia patients [7]; [25]): −1.4 ± 1.1 | Decline in dyskinetic symptoms as rated by the AIMS (schizophrenia patients [7]; [26]): 50% | SANS Total (with globals), treatment week 6 (schizophrenia patients [8]; week 6, mean ± sd, n=23): 51.9 ± 8.0 | SANS Total (with globals), Δ symptoms (schizophrenia patients [8]; week 6 minus week 0, mean ± sd): −9.0 ± 4.3 | Change in SAS or AIMS scores (patients [9]): did not find significant change | SAS, treatment week 0 (schizophrenia patients [10]; [23]): 4.2 ± 1.4 | SAS, treatment week 6 (schizophrenia patients [10]; [24]): 2.4 ± 0.8 | SAS, Δ symptoms (schizophrenia patients [10]; [25]): −1.8 ± 1.3 | Decline in Parkinsonian symptoms as rated by the SAS (schizophrenia patients [10]; [26]): 42% | PANSS Cognitive symptoms, treatment week 0 (schizophrenia patients [11]; D-serine phase, week 0, n=23): 8.5 ± 2.2 | PANSS Depression, treatment week 0 (schizophrenia patients [11]; D-serine phase, week 0, n=23): 5.3 ± 2.6 | PANSS Excitement, treatment week 0 (schizophrenia patients [11]; D-serine phase, week 0, n=23): 1.6 ± 1.5 | PANSS Negative symptoms, treatment week 0 (schizophrenia patients [11]; D-serine phase, week 0, n=23): 3.9 ± 4.0 | PANSS Positive Symptoms, treatment week 0 (schizophrenia patients [11]; D-serine phase, week 0, n=23): 4.2 ± 2.3 | PANSS Cognitive symptoms, treatment week 6 (schizophrenia patients [11]; D-serine, week 6, n=23): 17.1 ± 2.7 | PANSS Depression, treatment week 6 (schizophrenia patients [11]; D-serine, week 6, n=23): 13.8 ± 2.2 | PANSS Excitement, treatment week 6 (schizophrenia patients [11]; D-serine, week 6, n=23): 10.9 ± 1.4 | PANSS Negative symptoms, treatment week 6 (schizophrenia patients [11]; D-serine, week 6, n=23): 21.0 ± 3.5 | PANSS Positive Symptoms, treatment week 6 (schizophrenia patients [11]; D-serine, week 6, n=23): 13.0 ± 2.3 | PANSS Cognitive symptoms, Δ symptoms (schizophrenia patients [11]; D-serine, week 6 minus week 0): −1.4 ± 1.3 | PANSS Depression, Δ symptoms (schizophrenia patients [11]; D-serine, week 6 minus week 0): −1.5 ± 1.8 | PANSS Excitement, Δ symptoms (schizophrenia patients [11]; D-serine, week 6 minus week 0): −0.7 ± 1.2 | PANSS Negative symptoms, Δ symptoms (schizophrenia patients [11]; D-serine, week 6 minus week 0): −2.9 ± 1.9 | PANSS Positive Symptoms, Δ symptoms (schizophrenia patients [11]; D-serine, week 6 minus week 0): −1.2 ± 1.1

NCC(=O)O [Glycine, glycine]
SAS score before glycine treatment (schizophrenia patients [12]): 1.3 points | SAS score after glycine treatment (schizophrenia patients [12]; not significant vs placebo): 0.6 points | Number of VCM at baseline vs post-test day ([13]; 2 weeks after acute glycine 1.6 g/kg, p<0.07, VCM returned to pre-treatment levels): did not differ significantly | VCM frequency, glycine vs placebo group at test day ([13]; glycine 1.6 g/kg intraperitoneal, acute, p<0.01): significantly lower VCM frequency | Reduction in the number of VCM episodes ([13]; glycine 1.6 g/kg intraperitoneal, test day vs baseline, 30-150 minutes after injection, p<0.001): 82% | AIMS score decrease during glycine treatment ([14]; 6 weeks glycine, vs 0.3 point increase during placebo, p<0.02): 1.0 point | SAS score decrease during glycine treatment ([14]; 6 weeks glycine, vs 0.5 point increase during placebo, p<0.05): 1.3 points | AIMS, Effect size (d) [14, 27]: 0.6 | BPRS Total, Effect size (d) [14, 27]: 1.6 | PANSS Cognitive Symptoms, Effect size (d) [14, 27]: 0.9 | PANSS Depression, Effect size (d) [14, 27]: 0.7 | PANSS Excitement, Effect size (d) [14, 27]: 0.6 | PANSS Negative Symptoms, Effect size (d) [14, 27]: 2.1 | PANSS Positive Symptoms, Effect size (d) [14, 27]: 0.7 | SAS, Effect size (d) [14, 27]: 0.6 | AIMS, Score at Week 6 [14, 28]: 2.6 | BPRS Total, Score at Week 6 [14, 28]: 36.6 | PANSS Cognitive Symptoms, Score at Week 6 [14, 28]: 17.9 | PANSS Depression, Score at Week 6 [14, 28]: 13.4 | PANSS Excitement, Score at Week 6 [14, 28]: 12.0 | PANSS Negative Symptoms, Score at Week 6 [14, 28]: 20.4 | PANSS Positive Symptoms, Score at Week 6 [14, 28]: 14.0 | SAS, Score at Week 6 [14, 28]: 4.0 | PANSS Negative Symptoms, Score at Baseline ([14]; glycine phase, baseline, mean, 14 inpatients on olanzapine or risperidone): 24.6 | AIMS, Score at Baseline [14, 29]: 3.6 | BPRS Total, Score at Baseline [14, 29]: 42.6 | PANSS Cognitive Symptoms, Score at Baseline [14, 29]: 19.1 | PANSS Depression, Score at Baseline [14, 29]: 14.4 | PANSS Excitement, Score at Baseline [14, 29]: 13.2 | PANSS Positive Symptoms, Score at Baseline [14, 29]: 15.4 | SAS, Score at Baseline [14, 29]: 5.3 | AIMS, % Change during glycine [14, 30]: 32.2 (30.4) % | BPRS Total, % Change during glycine [14, 30]: 13.7 (7.5) % | PANSS Cognitive Symptoms, % Change during glycine [14, 30]: 9.2 (6.8) % | PANSS Depression, % Change during glycine [14, 30]: 7.4 (17.1) % | PANSS Excitement, % Change during glycine [14, 30]: 10.6 (20.9) % | PANSS Negative Symptoms, % Change during glycine [14, 30]: 23.3 (8.4) % | PANSS Positive Symptoms, % Change during glycine [14, 30]: 11.4 (11.7) % | SAS, % Change during glycine [14, 30]: 17.9 (40.1) % | AIMS, % Change during glycine [14, 31]: 32.2% | SAS, % Change during glycine [14, 31]: 18% | AIMS score before glycine treatment (schizophrenia patients [15]): 1.9 | AIMS score after glycine treatment (schizophrenia patients [15]; not significant vs placebo): 1.4 | Adverse effect leading to withdrawal during glycine administration [16]: mild upper gastrointestinal tract discomfort
